According to patent publication US20210299657A1, “Method for Development of Microfluidic Assay Device Prototype” (University of Manitoba, priority 2018, published 2021):

Key:
[1] = system: endogenous HMGA2 protein levels in MDA-MB-231 cells; assay: Western blot analysis of HMGA2 protein in MDA-MB-231 cells; assay type: cell-based, human; conditions: 72 h of treatment; for endogenous HMGA2 protein levels: 10 and 20 μM
Description: (§1) Interleukin-8 (IL8) (R&D systems, Minneapolis, USA), N-Formylmethionyl-leucyl-phenylalanine (fMLP) (Sigma, Oakville, Canada) and epidermal growth factor (EGF) (Bachem, Torrance, USA) were used as the chemoattractant for neutrophils and breast cancer cells, respectively, in the radial microfluidic chip. Neutrophils were isolated from blood of healthy donors using a negative magnetic isolation kit (STEMCELL, Vancouver, Canada). The human breast cancer cell lines MDA-MB-231 and MCF-7 were obtained from ATCC and cultured in DMEM/F12 plus 5% FBS. MDA-MB-231 cells containing a pcDNA3 human full-size HMGA2 expression construct or an empty vector control, as well as HMGA2-knockout MDA-MB-231 cells transduced with a specific lentiviral CRISPR/Cas9 construct (pLV-U6g-EPCG-HMGA2, HS0000278246; Sigma, Oakville, Canada), were cultured with DMEM/F12 medium plus 5% FBS. We employed a rabbit polyclonal anti-HMGA2 antibody (Cell Signalling Technologies, Whitby, Canada) in Western blot analysis to identify MDA-MB-231 clones with homozygous deletion of HMGA2. The small molecule Lin28 inhibitor 1632 (R&D Systems, Minneapolis, USA) was used at 10 and 20 μM to down-regulate endogenous HMGA2 in MDA-MB-231 cells.
To test this hypothesis and further characterize the role of HMGA2 in chemotaxis of MDA-MB-231, we opted for a pharmacological (LIN28 inhibitor 1632) and CRISPR/Cas9 mediated HMGA2 knockout strategy (FIG. 4B-C). […] Next, we treated MDA-MB-231 with a specific CRISPR/Cas9 lentiviral construct and the homozygous loss of HMGA2 expression in MDA-MB-231 HMGA2 knockout (KO) cells was confirmed by Western blot analysis (FIG. 6C). When exposed to a 100 ng/mL EGF gradient in the radial microfluidic chemotaxis assays, we observed a marked reduction in migration distance in MDA-MB-231 KO clones when compared to parental MDA-MB-231 (FIG. 7C). […] This novel higher throughput device may be a valuable new tool to excel the search for new therapeutic drugs and small molecules that can mitigate chemotaxis in inflammatory and tumor cells. […]

[2] = system: MDA-MB-231 breast cancer cells; assay: Radial microfluidic chemotaxis assay, MDA-MB-231 cells (migration distance); assay type: cell-based, human; conditions: for chemotaxis response (migration distance) to the EGF gradient after inhibitor treatment: MDA-MB-231 cells with reduced HMGA2 levels after LIN28 inhibitor, 6 h migration
Description: (§2) The device pattern was designed using AUTOCAD and printed on a transparent film at high resolution. The SU-8 device master was fabricated on a 3-inch silicon wafer by a two-layer photolithography (10). The first layer defines the cell docking structure that is used to align the cells to one side of the gradient channel prior to migration (FIG. 2). Its thickness should be cell specific, with it being slightly lower than the cell size but not be too low to prevent the cells from crossing, as described herein. We chose ˜2.5 μm for neutrophils and ˜7 μm for breast cancer cells. The Polydimethylsiloxane (PDMS) (Sylgard 184; Dow Corning, Midland, USA) device was fabricated using soft-lithography. Inlets (6 mm diameter), outlets (4 mm diameter), and the cell loading port (2 mm diameter) were punched. The PDMS replica was bonded to a glass slide to seal the channels after plasma treatment. The device channels were coated using rat tail collagen type I (3.8 μg/mL; Advanced BioMatrix, San Diego, USA) for one hour and then blocked by 0.4% BSA in RPMI medium for another hour before the migration experiment.
(§3) Two microliters of cell suspension were added to the cell loading port of each unit. When the cells had collected in the docking area, chemoattractant solution and migration medium were added to the corresponding inlets (FIG. 2). We used 100 nM IL-8 and 100 nM fMLP dissolved in RPMI-1640 with 0.4% BSA neutrophils. For the migration studies with the human breast cancer cells, EGF (10 ng/ml, 50 ng/ml, 100 ng/ml, 200 ng/ml) dissolved in DMEM/ F-12 plus 1% FBS served as chemoattractant.
(§4) To characterize proper gradient generation, FITC-dextran (10 kD; Sigma, Oakville, Canada) was added to the solution containing the chemoattractant and fluorescent images were captured using an inverted fluorescent microscope (Ti-U; Nikon, Mississauga, Canada). Upon adding the chemoattractant solution, the inlets were covered and connected with silicone oil (A12728-22, density=0.963 g/ml; Alfa Aesar, Tewksbury, USA) to balance the pressure difference between the two inlets (FIG. 3A). The microscope stage was enclosed by an environmental control chamber to maintain the temperature at 37° C. during the cell migration experiments. Time-lapse images (10 sec intervals for neutrophils and 3 min intervals for the breast cancer cells) recorded cell migration. The faster migration of neutrophils was recorded for 20 minutes, whereas migration of the breast cancer cells was monitored for 6 hours.
Cell migration and chemotaxis were quantified by calculating the migration distance the cells moved away from the docking site. For MDA-MB-231 experiments, trajectories of representative cells were tracked by manual tracking method using ImageJ. The migration angle ϕ is defined as the angle of the cell displacement vector in relation to the direction of the gradient and was calculated in 12 min intervals. The cosine of ϕ was used to indicate the directionality of cell migration relative to the gradient: 1 indicates cell migration perfectly along the gradient direction; −1 indicates cell migration along the opposite direction of the gradient; a value between 1 and −1 indicates the level of deviation of cell migration from the gradient direction. The cell shape was outlined using ImageJ. Each condition was repeated in at least three independent experiments. For statistical analysis, the two-sample Student's t-test was used to compare different conditions using OriginPro. P<0.05 was considered statistically significant and indicated by an asterisk.

human blood neutrophils = assay: Radial microfluidic chemotaxis assay, neutrophils (migration distance); assay type: cell-based; conditions: for neutrophil chemotaxis: 100 nM gradient, 20-minute migration experiment
Description: as §2
Two microliters of cell suspension were added to the cell loading port of each unit. […]
To characterize proper gradient generation, FITC-dextran (10 kD; Sigma, Oakville, Canada) was added to the solution containing the chemoattractant and fluorescent images were captured using an inverted fluorescent microscope (Ti-U; Nikon, Mississauga, Canada). […] Time-lapse images (10 sec intervals for neutrophils and 3 min intervals for the breast cancer cells) recorded cell migration. The faster migration of neutrophils was recorded for 20 minutes, whereas migration of the breast cancer cells was monitored for 6 hours.
(§5) Cell migration and chemotaxis were quantified by calculating the migration distance the cells moved away from the docking site. […] The migration angle ϕ is defined as the angle of the cell displacement vector in relation to the direction of the gradient and was calculated in 12 min intervals. […]

[3] = system: HMGA2 over-expressing and mock MDA-MB-231 stable transfectants; assay: Radial microfluidic chemotaxis assay, HMGA2 over-expressing and mock MDA-MB-231 stable transfectants; assay type: cell-based, human
Description: as §1, §3
as §4, with “The microscope stage was enclosed by an environmental control chamber to maintain the temperature at 37° C. during the cell migration experiments.” left out
as §5

Compound: CC(=O)N(C)c1cccc(-c2ccc3nnc(C)n3n2)c1 [LIN28 inhibitor 1632]
- presence of HMGA2 protein ([1]; 20 μM): almost completely abolished the presence of HMGA2
- endogenous HMGA2 protein levels [1]: down-regulated endogenous HMGA2 protein levels
- endogenous HMGA2 protein levels ([1]; listed as LIN28 inhibitor): verifiable reduction of endogenous HMGA2 levels
- chemotaxis response (migration distance) to the EGF gradient after inhibitor treatment [2]: markedly reduced migratory behavior
- chemotaxis response (migration distance) to the EGF gradient after inhibitor treatment ([2]; listed as 1632): markedly reduced chemotaxis
- chemotaxis response (migration distance) to the EGF gradient after inhibitor treatment ([2]; listed as LIN28 inhibitor): significant reduction in chemotaxis response to the EGF gradient

Compound: CSCC[C@H](NC=O)C(=O)N[C@@H](CC(C)C)C(=O)N[C@@H](Cc1ccccc1)C(=O)O [fMLP, N-Formylmethionyl-leucyl-phenylalanine]
- chemotaxis response with the fMLP gradient relative to the IL-8 gradient (human blood neutrophils; 100 nM fMLP gradient vs 100 nM IL-8 gradient, 20 minutes): more than 3 fold
- neutrophil chemotaxis (human blood neutrophils): stimulated neutrophil chemotaxis

Compound: EGF: epidermal growth factor (Bachem), chemoattractant for breast cancer cells (NSDSECPLSHDGYCLHDGVCMYIEALDKYACNCVVGYIGERCQYRDLKWWELR; Epidermal growth factor; UniProt P01133 971-1023, looked up)
- migration of MDA-MB-231 cells in EGF gradient ([2]; 200, 100, and 50 ng/ml EGF gradient): optimal and comparable migration
- directional migration of MDA-MB-231 cells in EGF gradient ([2]; EGF 10 ng/ml gradient, compared with higher EGF concentrations): directional migration decreased significantly
- migration of MDA-MB-231 cells in EGF gradient ([2]; EGF gradient 100 ng/mL, 6 h): actively migrated out of the docking structure towards the EGF gradient
- directional migration of MDA-MB-231 cells, low input EGF gradient ([2]; gradient with input EGF concentration 10 ng/mL): significantly increase directional migration
- migration of MDA-MB-231 cells in uniform EGF field ([2]; uniform field of EGF 100 ng/mL, 6 h): remained stationary in the docking structure and failed to show a chemotaxis response
- migration of transfectants at lowest EGF gradient vs uniform field or medium ([3]; EGF gradient 10 ng/mL vs uniform EGF field 50 ng/mL or normal medium): significantly stronger migration
- migration distance of transfectants from the docking site, lowest EGF gradient ([3]; EGF gradient 10 ng/mL, compared with the other EGF gradients): migrate the shortest distance
- migration of transfectants in EGF gradients ([3]; EGF gradients 200, 100, 50 and 10 ng/mL, 6 h): enhanced and directional migration with all EGF gradients tested
- migration of transfectants in uniform EGF field ([3]; uniform EGF field 50 ng/mL, 6 h): such migratory behaviour was absent

Compound: IL-8: Interleukin-8 (R&D systems), chemoattractant for neutrophils
- neutrophil chemotaxis (human blood neutrophils): stimulated neutrophil chemotaxis
